Test results: patent US20110020471A1, “ERYTHROCYTE ATP-RELEASE MODULATORS” (Wayne State University, priority 2007, published 2011)

Key:
[1] = test system: rabbit red blood cells (RBCs); test: Deformation-induced ATP release from rabbit RBCs pumped through microbore tubing (luciferin/luciferase chemiluminescence); assay type: cell-based
Procedure: (§1) Preparation of RBCs. Rabbits (New Zealand whites, males, 2.0-2.5 kg) were anesthetized with ketamine ([…], i.m.) and xylazine (1 mg/kg, i.m.) followed by pentobarbital sodium (15 mg/kg i.v.). A cannula was placed in the trachea and the animals were ventilated with room air. A catheter was placed into a carotid artery for administration of heparin and for phlebotomy. After heparin (500 units, i.v.), the animals were exsanguinated. Human blood was obtained by venipuncture without the use of a tourniquet (antecubital fossa) and collected into a heparinized syringe. Blood was centrifuged at 500×g at 4 C for 10 min. The plasma and buffy coat were discarded. The RBCs were resuspended and washed three times in a physiological salt solution [PSS, containing in mM: 4.7 KCl, 2.0 CaCl2, 140.5 NaCl […], 21.0 tris(hydroxymethyl)aminomethane, 11.1 dextrose with 5% bovine serum albumin (final pH 7.4)]. Cells were prepared on the day of use and experiments were finished within 8 hours of removal from the animal or human subjects. All procedures were approved by the Animal Investigation Committee or the Human Investigation Committee at Wayne State University.
(§2) Measurement of ATP. Human C-peptide (American Peptide Co., Sunnyvale, Calif.), 0.25 mg (MW=3020 g/mol), was dissolved in […] of purified water (18.2 megaohm) to yield a concentration of 83 μM. […] The resulting chemluminescence reaction flowed through a final potion of fused-silica microbore tubing that was placed over a photomultiplier tube, where the emission was detected. The resultant current was measured as a potential by a data acquisition board operated by a program written with the LabView software package (National Instruments, Austin, Tex.).
Introduction. […] Upon deformation in the tubing, the RBCs release ATP that is measured using a well-established chemiluminescence assay for ATP. The concentrations of RBC-derived ATP are measured in the presence and absence of synthetic C-peptide.
C-Peptide-Induced Release of ATP. RBCs obtained from rabbits are pumped through microbore tubing having an inside diameter of […] and the resultant ATP released by the cells upon deformation in the tubing is measured. […] Another aliquot from the same RBC sample is incubated in 1 nM C-peptide and the resultant ATP release measured every 2 h for a period up to 6 h. […] As shown, the ATP release (determined by a chemiluminescence assay) from those cells incubated in the c-peptide increased approximately 2.9 times over a period of […]. […] If cell lysis were occurring, the glybenclamide would have no affect on the measured ATP as it would be present in extracellular form whether or not glybenclamide was introduced to the RBCs. […]

[2] = test system: diabetic human RBCs; test: ATP release from RBCs of patients with type II diabetes; assay type: cell-based; conditions: for ATP release: diabetic human RBCs, ±SEM (n=7)
Procedure: as §1
as §2, with “μM. Next, an appropriate volume of this C-peptide solution was added to 10 mL of a 7% solution of RBCs to create a solution containing the C-peptide at concentrations in the 1-5 nM range.” for “μM.”, “Tex.). […]” for “Tex.).”

[3] = Electrospray ionization mass spectrometry of C-peptide and metal adducts in aqueous solution; assay type: physicochemical; conditions: ESI-MS, remaining in solution for periods >30 days
Procedure: Mass Spectrometric Analysis of Metal-Peptide Binding. […] Thus, alternative postulated causes are tested, including that a covalent modification of the peptide, e.g., induction or lysis of a side-chain-to-side-chain bond or of a moiety covalently attached to an amino acid residue, might be involved, or that non-covalent interaction with another chemical species, e.g., a metal ion, might be involved in this effect.
The data in FIG. 3 reveal some information about the possible loss of activity of the C-peptide after preparation in the aqueous solvent. Specifically, the mass spectrum shown in FIG. 3a is that of peptide prepared in water and analyzed within 0.5 h of preparation. In 3a, the [M+3H]^3+ peak is present as are other forms of the peptide with sodium atoms, potassium atoms, or a combination thereof. […] The presence of this Fe(II) adduct to the C-peptide is not present 24 h after preparation.
Although the Fe(II)-bound C-peptide has the ability to increase ATP-release from deformed RBCs, its activity also appears somewhat limited. […] The unexpected result is that the population of Fe(II)-C-peptide adduct begins to diminish within 24 h after the addition of an Fe(II) source, and Fe(II) is then replaced by either sodium or potassium, or both, cations in the C-peptide complex.
Improving Metal-Induced Activity of C-Peptide. […]

[4] = test system: RBCs; test: Lysis control: ATP signal of RBC solutions under non-flow conditions (luminometer); assay type: cell-based; conditions: 200 μL RBC solution and 200 μL luciferin/luciferase
Procedure: To ensure that the resulting increase in ATP release was due to C-peptide interacting with the RBCs and not cell lysis, the RBC solutions were measured under non-flow conditions using a luminometer with 200 μL of the RBC solution and 200 μL of the luciferin/luciferase solution. […] To ensure that lysis was not occurring in the tubing, a solution of 0.01 M glybenclamide was prepared by adding 49 mg of glybenclamide (Sigma) to 2 mL of a 0.1 M solution of sodium hydroxide. To this, 7.94 mL of a dextrose solution (1 g dextrose in 20 mL of purified water) was added. The mixture was heated carefully to 52° C. until all of the glybenclamide was dissolved. Once the solute was completely dissolved, 1 mL of this solution was added to 9 mL of PSS, resulting in a solution with a concentration 0.001 M. From this diluted solution, 2.5 mL were added to 2.5 mL of 7% hematocrit RBC solution, resulting in a 3.5% hematocrit solution of RBCs. This solution was allowed to incubate for 15 minutes. As a comparison, 2.5 mL of wash buffer without glybenclamide was added to 2.5 mL of 7% hematocrit RBCs. After 15 minutes, the RBC solutions were assayed.

[5] = test system: RBCs; test: Loss of ATP-release bioactivity of C-peptide preparation in water (metaanalysis of repeats of Experiments 1 and 2); assay type: cell-based

Compound | effect on the C-peptide-induced increase in ATP release ([1]; RBCs incubated in glybenclamide) | increase in ATP release versus control (buffer without C-peptide) ([1]; 1 nM C-peptide, over the 6 h period) | increase in ATP release ([1]; 1 nM c-peptide, over a period of 8 h, normalized values) | ability to induce ATP release from deformed RBCs ([1]; C-peptide kept at 4° C. for >30 days) | restoration of ATP release levels of diabetic RBCs ([2]; RBCs of patients with type II diabetes (n=7)) | ATP release ([2]; after 6 hours of incubation with freshly prepared C-peptide preparation) | ATP release ([2]; at 0 hours, freshly prepared C-peptide preparation) | degradation or cleavage of the peptide in solution [3] | ATP signal under non-flow conditions [4] | time to loss of bioactivity after preparation in water [5]
COc1ccc(Cl)cc1C(=O)NCCc1ccc(S(=O)(=O)NC(=O)NC2CCCCC2)cc1 [glybenclamide, reference compound] | can be inhibited | – | – | – | – | – | – | – | – | –
C-peptide: Human proinsulin C-peptide (American Peptide Co.), MW 3020 g/mol, synthetic (EAEDLQVGQVELGGGPGAGSLQPLALEGSLQ; (1)..(31) Hominidae sp. proinsulin C-peptide Human (Genbank P01308..gi124617), Chimpanzee (Genbank NP_001008996.1.. gi57113877), Orangutan (Genbank Q8HXV2..gi48428254), and Gorilla (Genbank AAM76640.1..gi23379796); listed as Hominidae sp.) | – | nearly three times that of the RBCs incubated with a control | approximately 2.9 times | no longer has the ability to induce ATP release from deformed RBCs | statistically equivalent to that of healthy, non-diabetic control patients | 256.1 ± 38.7 nM | 63.6 ± 12.6 nM | not undergoing any type of degradation or cleavage | No detectable signals | 24 to 36 h
